The subject of data set [1] is HUVECs (human umbelical vein endothelial cells). The experiment in a line: Transwell assay, VEGF-induced cell migration in HUVECs. Type of data set: cell-based. On the procedure: To examine the inhibitory effect of the compounds obtained in the Examples on VEGF (Vascular endothelial growth factor)-induced cell migration in HUVECs (human umbelical vein endothelial cells), a transwell assay was performed as follows.
HUVECs, provided from ATCC (American Type Culture Collection), were incubated in EGM-2 (Endothelial growth Medium-2 Medium) including 10% FBS, penicillin (100 unit/ml) and 100 μg/ml streptomycin sulfate plus various growth factors at 37° C. in an atmosphere of 5% CO2. After the change of the medium with growth factor-free EBM-2 (Endothelial Basal Medium-2 Medium), the cells were subjected to transwell assay.
After for 24 hours, the cells were fixed for 1 min with ethanol and were stained with a dye. Cell migration was evaluated by counting cells which moved through the pores.
In addition, cells were treated with Compound No. 250 (Example 26) at various concentrations given in Table 3, and assayed for cell migration, as conducted with Compounds 103, 110, 218, 273, 275, 276, 290, 312, 428, 442, and 509. The results were compared with those obtained after non-treatment (no treat) or treatment with 10 ng/mL VEGF.
Results were expressed as average numbers (n=3) of HUVECs which moved cross the membrane. Test results are summarized in Table 3 for compounds 103, 110, 218, 273, 275, 276, 290, 312, 428, 442, and 509, and in Table 4 for compound 250.

Data set [2] is described as follows: Cell viability MTS assay (cytotoxicity). The following applies: human; A-431 cells, 48 hrs incubation; read-out: IC50, MTS assay for cytotoxicity against A-431. Type of data set: cell-based. On the procedure:
A-431 ([…], human, ATCC CRL-1555™) cells grown in DMEM (Dulbeco's Modified Eagle's Medium, Gibco #11885) were seeded at a density of 1×10^4 cells/well into 96-well plates and incubated at 37° C. for 18 hrs under the supply of 5% CO2 until the cells stably adhered to the bottom. […] After incubation for 48 hrs in the presence of the test compound, the cells were assayed for viability.
The cells in each well was added with 21 μl of a mixture of 20:1 (v/v) of an MTS solution [(3-(4,5-dimethylthiazol-2-yl)-5-(3-carboxymethoxyphenyl)-2-(4-sulfophenyl)-2H-tetrazolium, Promega, Cat#65421; 2 mg/ml] and a PMS solution [Phenazine methosulfate, Sigma #P9625; 1 mg/ml], and incubated for 2 hrs, followed by measuring absorbance at 490 nm on a microplate reader (Molecular device, spectraMax M2). Relative to the control (media), viability by drug concentration was determined from the measurements of formazan, and the results are given in Table 2, below.
(In general: Formazan colour is commonly taken as a measure of viable cells.)

Data set [3] deals with HUVECs. The experiment in a line: VEGF-induced tube formation of HUVECs (capillary structure formation assay). The format is cell-based, human. On the procedure:
After HUVECs were seeded at a density of 3×10^5 cells/well into Matrigel-coated 48-well plates, HUVECs were with 10 ng/ml VEGF for 4 hrs. The HUVECs where tubes were formed were monitored and photographed under a microscope equipped with a camera to count cells.
HUVECs were also treated with Compound 250 (Example 26) at various concentrations given in Table 10, The HUVECs where tubes were formed were monitored and photographed under a microscope equipped with a camera, like Compound 103.

The subject of data set [4] is aortic rings excised from Spague-Dawley rats. The experiment in a line: Ex vivo microvessel sprouting assay, rat aortic rings. The conditions noted are these: 10 nM, 50 nM, 100 nM, FIG. 6. On the procedure:
Likewise, after the aortic rings excised from six-week-old Spague-Dawley rats were treated with various concentrations (10 nM, 50 nM, 100 nM) of Compound 250 (Example 26) and then with VEGF, Sprouts from margins of the aortic rings were photographed under a microscope equipped with a camera, like Compound 103.

Data set [5] deals with HUVECs. The data set is described as follows: BrdU incorporation assay, VEGF-induced cell proliferation in HUVECs. The format is cell-based, human. On the procedure:
A BrdU incorporation assay was carried out to examine whether the proliferation of HUVECs through VEGF-induced DNA synthesis is suppressed by BRN-103. HUVECs grown as in Experimental Example 2 were seeded at a density of 1×10^4 cells/well into 96-well plates. […] Thereafter, DNA synthesis in the cells was fluorescently measured using a BrdU incorporation assay kit (Roche).
Likewise, the cells were treated with various concentrations of Compound 250 (Example 26) given in Table 8, and then with VEGF, as the same manner of that of Compound 103. Intracellular DNA was also quantified, as the same manner of that of Compound 103. For comparison, the cells were not treated (control), or were treated with 10 ng/mL VEGF, alone.

The test system of data set [6] is HUVECs. The experiment in a line: Wound healing assay, VEGF-induced migration of HUVECs. The format is cell-based, human. On the procedure: Using a sterile, disposable cell scraper (BD Falcon, Bedford, USA), a monolayer of HUVECs was scraped, and the cells were gently washed with PBS. […] After 24 hours, the cell migration were monitored through the scraped monolayer of the cell and photographed under a microscope equipped with a camera (Canon Powershot640).
Also, Compound 250 (Example 26) was applied at various concentrations shown in Table 6 in the same manner as Compound 103, followed by monitoring and photographing the migration of the cells under the microscope. For comparison, the cells were not treated (control) or were treated with 10 ng/mL VEGF, alone.

Setting [7] is: 25 μM, 10 ng/ml VEGF 24 hrs, n=3.
Setting [8] is: 50 μM, 10 ng/ml VEGF 24 hrs, n=3.

Marks after values point to notes of the source that are not given here.

Turning to `Cc1cnc(NC(=O)c2cccnc2NC2CCN(Cc3ccccc3)CC2)s1` [Compound 428, 2-(1-Benzylpiperidin-4-ylamino)-N-(5-methylthiazol-2-yl)nicotinamide], the “No. of migration cells/field” value in data set [1] (setting [7]) is 14.5*** cells/field. For the same compound, the IC50 at 48 h in data set [2] was 125 µM.

`O=C(Nc1cccc(Cl)c1)c1cc(F)c(Cl)nc1NC1CCN(CCO)CC1` [Compound 312, 6-chloro-N-(3-chlorophenyl)-5-fluoro-2-[1-(2-hydroxyethyl)piperidin-4-ylamino]nicotinamide]: the “No. of migration cells/field” value in data set [1] (setting [8]) is 14*** cells/field. The IC50 at 48 h in data set [2] came to 20.7 µM.

As to `CC(c1ncnc(Cl)c1F)N1CCC(Nc2ncccc2C(=O)Nc2cccc(Cl)c2)CC1` (stereo not drawn) [Compound 250, 2-{1-[1-(6-chloro-5-fluoropyrimidin-4-yl)ethyl]piperidin-4-ylamino}-N-(3-chlorophenyl)nicotinamide], the Number of tubes/field was determined as 27 ± 2 tubes/field in the data set with HUVECs [3] (100 nM, without VEGF); 45 ± 6 tubes/field in the data set with HUVECs [3] (VEGF + 25 nM); 35 ± 2 tubes/field with HUVECs [3] (VEGF + 50 nM); 28 ± 4 tubes/field with HUVECs [3] (VEGF + 100 nM). Also, the “suppression of VEGF-induced tube formation, in words” value with HUVECs [3] (Tables 9 and 10) is “high suppressive effect on tube formation”. The VEGF-induced aortic sprouting entry in data set [4] is “inhibited VEGF-induced aortic sprouting”. The “No. of migration cells/field” value in data set [1] (100 nM, without VEGF) is 4.5 ± 1.11 cells/field; in data set [1] (VEGF + 25 nM) it was 33 ± 2.54 cells/field; in data set [1] (VEGF + 50 nM), 20.3 ± 1.08 cells/field; in data set [1] (VEGF + 100 nM), 12.5 ± 2.5 cells/field. Besides, the “suppression of VEGF-induced migration of HUVECs, in words” value is on record as “remarkable suppressive effect” in data set [1] (transwell assay, text on Tables 3 and 4); “highly suppresses VEGF-induced migration of HUVECs” with HUVECs [6] (wound healing assay, text on Tables 5 and 6). The BrdU incorporation in the data set with HUVECs [5] (100 nM, without VEGF) is listed as 0.7 ± 0.05 OD 450 nM; in the data set with HUVECs [5] (VEGF + 25 nM) it was 0.79 ± 0.02 OD 450 nM; with HUVECs [5] (VEGF + 50 nM) it was 0.75 ± 0.03 OD 450 nM; in the data set on HUVECs [5] (VEGF + 100 nM), 0.7 ± 0.05 OD 450 nM. Besides, the “inhibition of VEGF-induced proliferation in HUVECs, in words” value in the data set on HUVECs [5] (BrdU assay, text on Tables 7 and 8) is listed as “inhibited VEGF-induced proliferation in HUVECs”. In addition, the Wound closure came to 125 µm in the data set with HUVECs [6] (100 nM, without VEGF); 210 µm with HUVECs [6] (VEGF + 25 nM); 165 µm in the data set on HUVECs [6] (VEGF + 50 nM); 120 µm in the data set on HUVECs [6] (VEGF + 100 nM). For the same compound, the IC50 at 48 h in data set [2] worked out at 26.1 µM.

As for `O=C(Nc1cccc(Cl)c1)c1cccnc1N[C@H]1CCCN(Cc2ccccc2)C1` [Compound 273, (S)-2-(1-benzylpiperidin-3-ylamino)-N-(3-chlorophenyl)nicotinamide], the “No. of migration cells/field” value in data set [1] (setting [8]) is listed as 12*** cells/field. The 50% inhibitory concentration (IC50) at 48 h in data set [2] was 40.9 µM.

In the case of `O=C(Nc1cccc(Cl)c1)c1cccnc1NC1CCN(CCO)CC1` [Compound 218, N-(3-Chlorophenyl)-2-[1-(2-hydroxyethyl)piperidin-4-ylamino]nicotinamide], the “No. of migration cells/field” value in data set [1] (setting [7]) is given as 7.5*** cells/field.

Turning to `CC(C)(C)OC(=O)N1CCC[C@H](Nc2ncccc2C(=O)Nc2cccc(Cl)c2)C1` [Compound 276, (S)—N-(3-chlorophenyl)-2-(1-tert-butoxycarbamoylpiperidin-3-ylamino)nicotinamide], in data set [1] (setting [8]), the “No. of migration cells/field” value is on record as 12.5*** cells/field.

As to `O=C(Nc1cccc(Cl)c1)c1cccnc1N[C@H]1CCCNC1` [Compound 275, (S)—N-(3-chlorophenyl)-2-(3-piperidylamino)nicotinamide], the “No. of migration cells/field” value in data set [1] (setting [8]) is recorded as 11*** cells/field. Besides, the IC50 at 48 h in data set [2] is 94.6 µM.

As to `O=C(Nc1cccc(Cl)c1)c1cccnc1NN1CCN(CCO)CC1` [Compound 241, N-(3-Chlorophenyl)-2-[4-(2-hydroxyethyl)piperazin-1-ylamino)nicotinamide], the half-maximal inhibitory concentration (IC50) at 48 h in data set [2] worked out at 164 µM.

With `COC(=O)c1c(NC(=O)c2cccnc2NC2CCCN(Cc3ccccc3)C2)sc2c1CCNC2` (stereo not drawn) [Compound 509, 2-{[2-(1-benzylpiperidin-3-ylamino)pyridine-3-carbonyl]amino}-4,5,6,7-tetrahydrothieno[2,3-c]pyridine-3-carboxylic acid methyl ester], the “No. of migration cells/field” value in data set [1] (setting [7]) is recorded as 7*** cells/field.

With `COC(=O)c1c(NC(=O)c2cccnc2NC2CCN(Cc3ccccc3)CC2)sc2c1CCNC2` [Compound 442, 2-{[2-(1-Benzylpiperidin-4-ylamino)pyridine-3-carbonyl]amino}-4,5,6,7-tetrahydro-thieno[2,3-c]pyridine-3-carboxylic acid methyl ester], in data set [1] (setting [7]), the “No. of migration cells/field” value is recorded as 15*** cells/field.

For the compound `O=C(Nc1ccc(Oc2ccccc2)cc1)c1cccnc1NC1CCN(Cc2ccccc2)CC1` [Compound 110, 2-(1-Benzylpiperidin-4-ylamino)-N-(4-phenoxyphenyl)nicotinamide], in data set [1] (setting [7]), the “No. of migration cells/field” value is reported as 10*** cells/field. Also, in data set [2], the IC50 at 48 h came out at 22.2 µM.

In the case of `O=C(Nc1cccc(Cl)c1)c1cccnc1SC1CCN(Cc2ccccc2)CC1` [Compound 290, 2-(1-Benzylpiperidin-4-ylsulfanyl)-N-(3-chlorophenyl)nicotinamide], the “No. of migration cells/field” value in data set [1] (setting [8]) is listed as 14.5*** cells/field. The IC50 at 48 h in data set [2] stood at 54.8 µM.

As for `CC1(C)CC(Nc2ncccc2C(=O)Nc2cccc(Cl)c2)CC(C)(C)N1CCO` [Compound 242, N-(3-Chlorophenyl)-2-(1-(2-hydroxyethyl)-2,2,6,6-tetramethylpiperidin-4-ylamino)nicotinamide], in data set [2], the IC50 at 48 h was 81.9 µM.

For the compound `COc1ccc(NC(=O)c2cccnc2NC2CCN(Cc3ccccc3)CC2)cc1OC` [Compound 443, 2-(1-Benzylpiperidin-4-ylamino)-N-(3,4-dimethoxyphenyl)nicotinamide], the half-maximal inhibitory concentration (IC50) at 48 h in data set [2] is 140 µM.

On to `O=C(Nc1cccc(Cl)c1)c1cccnc1NC1CCN(Cc2cccnc2)CC1` [Compound 249, N-(3-chlorophenyl)-2-[1-(pyridin-3-ylmethyl)piperidin-4-ylamino]nicotinamide], for which the IC50 at 48 h in data set [2] amounted to 102 µM.

As for `CCN(CC)CCNC(=O)c1c(C)[nH]c(/C=C2\C(=O)Nc3ccc(F)cc32)c1C` [Sunitinib, sunitinib, reference compound], the “Number of tubes/field” value in the data set on HUVECs [3] (VEGF + 1 μM, 4 hrs) is 100*** tubes/Field. Besides, in data set [1] (1 μM, 10 ng/ml VEGF 24 hrs, n=3), the “No. of migration cells/field” value is 16.5*** cells/field. Also, in the data set with HUVECs [5] (VEGF + 1 μM, 24 hrs), the BrdU incorporation is 0.84*** OD 450 nm. For the same compound, in the data set with HUVECs [6] (VEGF + 1 μM, 24 hrs), the Wound closure was 210 µm. In addition, the IC50 at 48 h in data set [2] is 22 µM.

In the case of `O=C(NC(Cc1ccccc1)c1ccccc1)c1cccnc1NC1CCN(Cc2ccccc2)CC1` (stereo not drawn) [Compound 426, 2-(1-Benzylpiperidin-4-ylamino)-N-(1,2-diphenylethyl)nicotinamide], the 50% inhibitory concentration (IC50) at 48 h in data set [2] worked out at 39.7 µM.

What is called IC50 is the point on the concentration scale where inhibition reaches its midpoint.

Values taken from patent US9227955B2, “Compound having angiogenesis inhibitory activity, method for preparing same, and pharmaceutical composition comprising same” (Boryung Pharmaceutical Co., Ltd., priority 2011, dated 2016).
